Source: patent publication US10266548B2, “Substituted benzylindazoles for use as Bub1 kinase inhibitors in the treatment of hyperproliferative diseases” (Bayer Intellectual Property GmbH, priority 2011, dated 2019)
Several values for one entry are separate records, joined by “and”; a condition that tells them apart may be missing. Equal entries are not always repeated. Structures can show the parent of a compound that is named as a salt. Where two headings read alike, the source gives them in different places.

Columns and labels:
[1] = tested on: HeLa cells; assay: Proliferation assay (HeLa cell line); assay type: cell-based; details: read-out: Biological Assay 2: Proliferation assay (HeLa cell line) median IC50
Description: Cultivated tumor cells (cells were ordered from ATCC, except HeLa-MaTu and HeLa-MaTu-ADR, which were ordered from EPO-GmbH, Berlin) were plated at a density of 1000 to 5000 cells/well, depending on the growth rate of the respective cell line, in a 96-well multititer plate in 200 μL of their respective growth medium supplemented 10% fetal calf serum. After 24 hours, the cells of one plate (zero-point plate) were stained with crystal violet (see below), while the medium of the other plates was replaced by fresh culture medium (200 μl), to which the test substances were added in various concentrations (0 μM, as well as in the range of 0.001-10 μM; the final concentration of the solvent dimethyl sulfoxide was 0.5%). The cells were incubated for 4 days in the presence of test substances. Cell proliferation was determined by staining the cells with crystal violet: the cells were fixed by adding 20 μl/measuring point of an 11% glutaric aldehyde solution for 15 minutes at room temperature. After three washing cycles of the fixed cells with water, the plates were dried at room temperature. The cells were stained by adding 100 μl/measuring point of a 0.1% crystal violet solution (pH 3.0). After three washing cycles of the stained cells with water, the plates were dried at room temperature. The dye was dissolved by adding 100 μl/measuring point of a 10% acetic acid solution. […] The change of cell number, in percent, was calculated by normalization of the measured values to the aborbtion values of the zero-point plate (=0%) and the absorbtion of the untreated (0 μm) cells (=100%). The IC50 values were determined by means of a 4 parameter fit using the company's own software.

[2] = target: catalytic domain of human Bub1 (amino acids 704-1085) (Homo sapiens (Human), UniProt O43683); assay: Bub1 kinase assay (TR-FRET); assay type: biochemical; details: 10 μM ATP, 1 μM peptide substrate; read-out: Biological Assay 1: Bub1 kinase assay median IC50
Sequence of catalytic domain of human Bub1 (amino acids 704-1085) (O43683 704-1085): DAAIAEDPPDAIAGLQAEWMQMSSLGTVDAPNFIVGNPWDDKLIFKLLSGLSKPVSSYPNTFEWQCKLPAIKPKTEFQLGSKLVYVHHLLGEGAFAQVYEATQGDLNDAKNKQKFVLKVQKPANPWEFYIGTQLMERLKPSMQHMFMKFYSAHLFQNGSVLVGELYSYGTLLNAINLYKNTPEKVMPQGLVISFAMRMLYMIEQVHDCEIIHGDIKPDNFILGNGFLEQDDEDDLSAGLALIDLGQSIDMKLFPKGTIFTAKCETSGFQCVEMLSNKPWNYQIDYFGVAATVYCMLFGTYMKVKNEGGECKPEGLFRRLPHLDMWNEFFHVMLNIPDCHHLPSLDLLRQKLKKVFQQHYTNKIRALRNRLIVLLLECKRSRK
Description: To this end, 100-fold concentrated compound solutions (in DMSO) were previously prepared by serial dilution (1:3.4) of 2 mM stocks in a clear low volume 384-well source microtiter plate (Greiner Bio-One, Frickenhausen, Germany), from which 50 nl of compounds were transferred into a black low volume test microtiter plate from the same supplier. […] The resulting mixture (5 μl final volume) was incubated at 22° C. during 60 min., and the reaction was stopped by the addition of 5 μl of an aqueous EDTA-solution (50 mM EDTA, in 100 mM HEPES pH 7.5 and 0.2% (w/v) bovine serum albumin) which also contained the TR-FRET detection reagents (0.2 μM streptavidin-XL665 [Cisbio Bioassays, Codolet, France] and 1 nM anti-phosho-Serine antibody [Merck Millipore, cat. #35-001] and 0.4 nM LANCE EU-W1024 labeled anti-mouse IgG antibody [Perkin-Elmer, product no. AD0077, alternatively a Terbium-cryptate-labeled anti-mouse IgG antibody from Cisbio Bioassays can be used]). The stopped reaction mixture was further incubated 1 h at 22° C. in order to allow the formation of complexes between peptides and detection reagents. Subsequently, the amount of product was evaluated by measurement of the resonance energy transfer from the Eu-chelate-antlbody complex recognizing the Phosphoserlne residue to the streptavidin-XL665 bound to the biotin moiety of the peptide. […] IC50 values were calculated by fitting the normalized inhibition data to a 4-parameter logistic equation (Minimum, Maximum, IC50, Hill; Y=Max+(Min−Max)/(1+(X/IC50)Hill)) using a Bayer-proprietary analysis software.

[3] = Homo sapiens, 96 h, 4 days, crystal violet

CCOc1cc(F)c(Cn2nc(-c3ncc(OC)c(Nc4cc[nH]c(=O)c4)n3)c3ccccc32)c(F)c1 [Example 24-8, 4-({2-[1-(4-ethoxy-2,6-difluorobenzyl)-1H-indazol-3-yl]-5-methoxypyrimidin-4-yl}amino)pyridin-2(1H)-one]
IC50 ([1]; Homo sapiens, 96 h): 10 µM | IC50 [2]: 0.026 µM

CCOc1cc(F)c(Cn2nc(-c3ncc(OCC(=O)O)c(Nc4ccncc4)n3)c3ccccc32)c(F)c1 [Example 19-2]
IC50 ([1]; 4 days, crystal violet): ≥ 10 µM | IC50 [2]: 0.0063 µM

CCCc1ccc(Cn2nc(-c3ncc(OC)c(Nc4ccncc4C(N)=O)n3)c3ccccc32)cc1 [Example 25-2]
IC50 ([1]; 4 days, crystal violet): ≥ 10 µM | IC50 [2]: 0.0054 µM

CCOc1cc(F)c(Cn2nc(-c3ncc(OC)c(Nc4c(F)cncc4F)n3)c3ccccc32)c(F)c1 [Example 39-2]
IC50 ([1]; 4 days, crystal violet): ≥ 10 µM | IC50 [2]: 0.67 µM

C#Cc1ccc(Cn2nc(-c3ncc(OC)c(Nc4ccncc4)n3)c3ccccc32)c(F)c1 [Example 21-1, 2-[1-(4-ethynyl-2-fluorobenzyl)-1H-indazol-3-yl]-5-methoxy-N-(pyridin-4-yl)pyrimidin-4-amine]
IC50 [1, 3]: 3.8 µM | IC50 [2]: 0.028 µM

COc1cnc(-c2nn(Cc3ccc(C)c(F)c3F)c3ccccc23)nc1Nc1ccncc1 [Example 2-8-1, 2-[1-(2,3-difluoro-4-methylbenzyl)-1H-indazol-3-yl]-5-methoxy-N-(pyridin-4-yl)pyrimidin-4-amine]
IC50 [1, 3]: ≥ 10 µM | IC50 [2]: 0.0067 µM

COc1cnc(-c2nn(Cc3ccc(I)cc3F)c3ccccc23)nc1Nc1ccncc1 [Example 2-20-1, 2-[1-(2-fluoro-4-iodobenzyl)-1H-indazol-3-yl]-5-methoxy-N-(pyridin-4-yl)pyrimidin-4-amine]
IC50 ([1]; Homo sapiens, 96 h): 7.3 µM | IC50 [2]: 0.011 µM

COc1cnc(-c2nn(Cc3ccc(C#N)cc3F)c3ccccc23)nc1Nc1ccncc1 [Example 2-33-1, 3-fluoro-4-({3-[5-methoxy-4-(pyridin-4-ylamino)pyrimidin-2-yl]-1H-indazol-1-yl}methyl)benzonitrile]
IC50 [1, 3]: ≥ 10 µM | IC50 [2]: 0.038 µM

COc1cnc(-c2nn(Cc3ccc(S(=O)(=O)NC4CC4)cc3)c3ccccc23)nc1Nc1ccncc1 [Example 2-37-1, N-cyclopropyl-4-({3-[5-methoxy-4-(pyridin-4-ylamino)pyrimidin-2-yl]-1H-indazol-1-yl}methyl)benzenesulfonamide]
IC50 [1, 3]: ≥ 10 µM | IC50 [2]: 0.071 µM

COc1ccc(Cn2nc(-c3ncc(OC)c(Nc4ccnc(F)c4)n3)c3ccccc32)cc1 [Example 34-1, N-(2-fluoropyridin-4-yl)-5-methoxy-2-[1-(4-methoxybenzyl)-1H-indazol-3-yl]pyrimidin-4-amine]
IC50 ([1]; Homo sapiens, 96 h): ≥ 10 µM | IC50 [2]: 0.23 µM

COc1cnc(-c2nn(Cc3c(Cl)cccc3Cl)c3ccccc23)nc1Nc1ccncc1 [Example 15-4, 2-[1-(2,6-dichlorobenzyl)-1H-indazol-3-yl]-5-methoxy-N-(pyridin-4-yl)pyrimidin-4-amine hydrochloride (1:1)]
IC50 ([1]; Homo sapiens, 96 h): ≥ 10 µM | IC50 [2]: 0.0073 µM

COc1cnc(-c2nn(Cc3c(Cl)cc(OC(F)(F)F)cc3Cl)c3ccccc23)nc1N(Cc1c(Cl)cc(OC(F)(F)F)cc1Cl)c1ccncc1 [Example 2-26-2, N-[2,6-dichloro-4-(trifluoromethoxy)benzyl]-2-{1-[2,6-dichloro-4-(trifluoromethoxy)benzyl]-1H-indazol-3-yl}-5-methoxy-N-(pyridin-4-yl)pyrimidin-4-amine]
IC50 [1, 3]: 2.9 µM | IC50 [2]: 0.84 µM

COc1cnc(-c2nn(Cc3ccc4c(c3)OC(=O)C4)c3ccccc23)nc1Nc1ccncc1 [Example 2-38-1, 6-({3-[5-methoxy-4-(pyridin-4-ylamino)pyrimidin-2-yl]-1H-indazol-1-yl}methyl)-1-benzofuran-2(3H)-one]
IC50 [1, 3]: ≥ 10 µM | IC50 [2]: 0.076 µM

COc1cnc(-c2nn(Cc3ccccc3Cl)c3ccccc23)nc1Nc1ccncc1 [Example 2-10-1, 2-[1-(2-chlorobenzyl)-1H-indazol-3-yl]-5-methoxy-N-(pyridin-4-yl)pyrimidin-4-amine]
IC50 ([1]; Homo sapiens, 96 h): ≥ 10 µM | IC50 [2]: 0.0067 µM

COc1cnc(-c2nn(Cc3cccc(SC(F)(F)F)c3)c3ccccc23)nc1Nc1ccncc1 [Example 2-7-3, 5-methoxy-N-(pyridin-4-yl)-2-(1-{3-[(trifluoromethyl)sulfanyl]benzyl}-1H-indazol-3-yl)pyrimidin-4-amine]
IC50 ([1]; Homo sapiens, 96 h): ≥ 10 µM | IC50 [2]: 0.43 µM

CCOc1cc(F)c(Cn2nc(-c3nccc(N(C(C)=O)c4ccncc4)n3)c3ccccc32)c(F)c1 [Example 16-1, N-{2-[1-(4-ethoxy-2,6-difluorobenzyl)-1H-indazol-3-yl]pyrimidin-4-yl}-N-(pyridin-4-yl)acetamide]
IC50 [1, 3]: 2.8 µM | IC50 [2]: 0.17 µM

COc1cnc(-c2nn(Cc3ccc(-n4cccn4)cc3)c3ccccc23)nc1Nc1ccncc1 [Example 2-8-3, 5-methoxy-2-{1-[4-(1H-pyrazol-1-yl)benzyl]-1H-indazol-3-yl}-N-(pyridin-4-yl)pyrimidin-4-amine]
IC50 [1, 3]: 10 µM | IC50 [2]: 0.057 µM

COc1cnc(-c2nn(Cc3c(Cl)cccc3C(F)(F)F)c3ccccc23)nc1Nc1ccncc1 [Example 2-30-1, 2-{1-[2-chloro-6-(trifluoromethyl)benzyl]-1H-indazol-3-yl}-5-methoxy-N-(pyridin-4-yl)pyrimidin-4-amine]
IC50 [1, 3]: 2.2 µM | IC50 [2]: 0.023 µM

COCc1noc(COc2cnc(-c3nn(Cc4ccccc4F)c4ccccc34)nc2Nc2ccncc2)n1 [Example 4-13, 2-[1-(2-fluorobenzyl)-1H-indazol-3-yl]-5-{[3-(methoxymethyl)-1,2,4-oxadiazol-5-yl]methoxy}-N-(pyridin-4-yl)pyrimidin-4-amine]
IC50 ([1]; Homo sapiens, 96 h): 8 µM | IC50 [2]: 0.076 µM and 0.0076 µM

COc1cnc(-c2nn(Cc3ccc(I)cc3Cl)c3ccccc23)nc1Nc1ccncc1 [Example 2-28-1, 2-[1-(2-chloro-4-iodobenzyl)-1H-indazol-3-yl]-5-methoxy-N-(pyridin-4-yl)pyrimidin-4-amine]
IC50 ([1]; Homo sapiens, 96 h): 8.1 µM | IC50 [2]: 0.022 µM

CCOc1cc(F)c(Cn2nc(-c3nccc(N(C(=O)COC)c4ccncc4)n3)c3ccccc32)c(F)c1 [Example 16-2, N-{2-[1-(4-ethoxy-2,6-difluorobenzyl)-1H-indazol-3-yl]pyrimidin-4-yl}-2-methoxy-N-(pyridin-4-yl)acetamide]
IC50 [1, 3]: 3.5 µM | IC50 [2]: 0.023 µM

COc1cnc(-c2nn(Cc3cccc(CCO)c3)c3ccccc23)nc1Nc1ccncc1 [Example 8-2, 2-[3-({3-[5-methoxy-4-(pyridin-4-ylamino)pyrimidin-2-yl]-1H-indazol-1-yl}methyl)phenyl] ethanol]
IC50 [1, 3]: 5.5 µM | IC50 [2]: 0.021 µM

CCOc1cc(F)c(Cn2nc(-c3ncc(O)c(N(c4ccncc4)C(F)F)n3)c3ccccc32)c(F)c1 [Example 10-3, 4-[(difluoromethyl) (pyridin-4-yl)amino]-2-[1-(4-ethoxy-2,6-difluorobenzyl)-1H-indazol-3-yl]pyrimidin-5-ol]
IC50 [1, 3]: 9.6 µM | IC50 [2]: 0.36 µM

NC(=O)c1cnccc1Nc1nc(-c2nn(Cc3ccccc3F)c3ccccc23)ncc1O [Example 30-1, 4-({2-[1-(2-fluorobenzyl)-1H-indazol-3-yl]-5-hydroxypyrimidin-4-yl}amino)pyridine-3-carboxamide]
IC50 [1, 3]: ≥ 10 µM | IC50 [2]: 0.017 µM

COc1cnc(-c2nn(Cc3ccc(F)cc3)c3ccccc23)nc1Nc1ccncc1 [Example 2-36-1, 2-[1-(4-fluorobenzyl)-1H-indazol-3-yl]-5-methoxy-N-(pyridin-4-yl)pyrimidin-4-amine]
IC50 [1, 3]: ≥ 10 µM | IC50 [2]: 0.058 µM
